# Assay results: PubChem BioAssay AID2060484 (Molecular Pharmacology Branch, DTP, NCI, 2025)
# Values joined by “and” are separate entries in the source; they are usually repeats but may differ in a detail not shown here. Equal values may be shown once.
# System: SUM149PT spheroids with HUVEC/MSC, viability
# Test: Anticancer human tumor SUM149PT cell line growth inhibition [GQUAD];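 also: spheroids exposed to drugs for seven days before readout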;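 as to viability, T/C: percent viability relative to DMSO vehicle control taken as 100%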
# Conditions: for viability, T/C: stronger effect = lower value
# Description: DNA G-quadruplex Stabilizer Agents in Combinations in Complex Spheroids
# A high-throughput screen of multi-cell type tumor spheroids was designed to identify active combinations of DNA G-quadruplex stabilizer agents and targeted small molecules. Complex spheroids include a stromal component modeled by human endothelial cells (HUVEC) and fibroblasts modeled by human mesenchymal stem cells (MSCs). The concentration ranges selected for each drug and investigational agent were based upon clinically achievable concentrations if the clinical Cmax of the agent was known.
# Compounds. The drugs and investigational agents: pidnarulex (CX-5461; NSC782164), APTO-253 (NSC789042), BRACO-19 (NSC847499), peposertib (NSC802822), ceralasertib (NSC780249), elimusertib (NSC800525), camonsertib (NSC841442), AZD-1390 (NSC803789), olaparib (NSC753686), talazoparib (NSC767125), ART-558 (NSC835418), sotorasib (NSC818433), MRTX-1133 (NSC836407), SN-38 (NSC673596), topotecan (NSC609699), etoposide (NSC141540), doxorubicin (NSC123127), gemcitabine (NSC613327), 5-fluorouracil (NSC19893), paclitaxel (NSC125973), vemurafenib (NSC761431), panobinostat (NSC761190), R-306465 (JNJ-16241199; NSC773264), adavosertib (NSC754352), TP-3654 (NSC805149), carboplatin (NSC241240), KSQ-4279 (NSC840948), and staurosporine (NSC755774) were obtained from the National Cancer Institute (NCI) Developmental Therapeutics Program Chemical Repository (34). The FDA-approved anticancer drug set is available from the NCI Developmental Therapeutics Program. […] The stock solutions were prepared in dimethyl sulfoxide (DMSO, Sigma-Aldrich, St. Louis, MO, cat. D2650) at 800-fold the tested concentration and stored at -70 degrees C prior to their use. All drugs and investigational agents were tested over a range starting from a high concentration at or near the clinical Cmax and decreasing in half-log increments. If the clinical Cmax for an agent had not been determined, the highest concentration tested was 10 microM.
# 2.3 Cell Culture. All cells were maintained in an incubator at 37 degrees C and 5% CO2 with 95% humidity. The PDC lines were cultured according to standard operating procedures established by the NCI PDMR. All PDCs were thawed and cultured in Matrigel-coated flasks prepared with a working solution of 1X Ham's F-12 nutrient mix, without supplementation (Invitrogen, cat. 11765054), 100 U/mL penicillin-streptomycin (Invitrogen, cat. 15140122), and 2.5% Matrigel (Corning Inc., cat. 354248) for the first three passages. The 857933-349-R-J2-PDC line was cultured in 6C/Colon 1B media, which includes advanced DMEM/F-12 (Thermo Fisher Scientific, cat. 12634028), 10 mM HEPES (Thermo Fisher Scientific, cat. 15630080), 1X GlutaMAX supplement (Thermo Fisher Scientific, cat. 35050061), 0.1 mg/mL primocin (InvivoGen, cat. ant-pm-2), 10% defined fetal bovine serum, heat inactivated (HyClone Laboratories Inc., cat. SH30070.03HI), 50% L-WRN conditioned media (ATCC, cat. CRL-3276), 1.25 mM N-Acetyl-L-cysteine (Sigma-Aldrich, cat. A9165), 10 mM nicotinamide (Sigma-Aldrich, cat. N0636), 1X B-27 supplement (Thermo Fisher Scientific, cat. 17504044), 1X N-2 supplement (Thermo Fisher Scientific, cat. 17502048), 10 microM Y-27632 dihydrochloride (Tocris Bioscience, cat. 1254), and 50 ng/mL human EGF recombinant protein (Thermo Fisher Scientific, cat. PHG0311). The 485176-168-R4-J1-PDC line was cultured in Panc media, which includes all 6C/Colon 1B media components plus 100 ng/mL human FGF-10 (Thermo Fisher Scientific, cat. 100-26), 500 nM SB-431542 (Selleckchem, cat. S1067), and gastrin (Tocris, cat. 3006).
# […]
# [1] = curve of first compound, second compound 0.0316 µM
# [2] = curve of first compound, second compound 0.1 µM
# [3] = curve of first compound, second compound 0.316 µM
# [4] = curve of first compound, second compound 1 µM
# [5] = curve of first compound, second compound 3.16 µM
# [6] = curve of first compound, second compound 10 µM
# [7] = second compound 0.0316 µM, first compound 0.0316 µM
# [8] = second compound 0.0316 µM, first compound 0.316 µM
# [9] = second compound 0.1 µM, first compound 0.0316 µM
# [10] = second compound 0.1 µM, first compound 0.316 µM
# [11] = second compound 0.316 µM, first compound 0.0316 µM
# [12] = second compound 0.316 µM, first compound 0.316 µM
# [13] = second compound 1 µM, first compound 0.0316 µM
# [14] = second compound 1 µM, first compound 0.316 µM
# [15] = second compound 3.16 µM, first compound 0.0316 µM
# [16] = second compound 3.16 µM, first compound 0.316 µM
# [17] = second compound 10 µM, first compound 0.0316 µM
# [18] = second compound 10 µM, first compound 0.316 µM
smiles,measurement,setting,value
Cc1[nH]c2ccccc2c1CCNCc1ccc(/C=C/C(=O)NO)cc1 + Cc1cnc(CNC(=O)c2c(=O)c3ccc(N4CCCN(C)CC4)nc3n3c2sc2ccccc23)cn1,IC50,[1],131 nM
same,IC50,[2],100 nM
same,IC50,[3],56 nM
same,IC50,[4],< 0.999 nM
same,IC50,[5],< 0.999 nM
same,IC50,[6],< 0.999 nM
same,"viability, T/C","second compound 0.0316 µM, first compound 0.000999 µM",106%
same,"viability, T/C","second compound 0.0316 µM, first compound 0.00316 µM",86.2%
same,"viability, T/C","second compound 0.0316 µM, first compound 0.00999 µM",90%
same,"viability, T/C",[7],89.5%
same,"viability, T/C","second compound 0.0316 µM, first compound 0.0999 µM",56%
same,"viability, T/C",[8],29.8%
same,"viability, T/C","second compound 0.1 µM, first compound 0.000999 µM",66.2%
same,"viability, T/C","second compound 0.1 µM, first compound 0.00316 µM",62.1%
same,"viability, T/C","second compound 0.1 µM, first compound 0.00999 µM",67.7%
same,"viability, T/C",[9],65.2%
same,"viability, T/C","second compound 0.1 µM, first compound 0.0999 µM",50.1%
same,"viability, T/C",[10],26.9%
same,"viability, T/C","second compound 0.316 µM, first compound 0.000999 µM",54.2%
same,"viability, T/C","second compound 0.316 µM, first compound 0.00316 µM",55.2%
same,"viability, T/C","second compound 0.316 µM, first compound 0.00999 µM",55.3%
same,"viability, T/C",[11],54.9%
same,"viability, T/C","second compound 0.316 µM, first compound 0.0999 µM",45.7%
same,"viability, T/C",[12],25%
same,"viability, T/C","second compound 1 µM, first compound 0.000999 µM",51.1%
same,"viability, T/C","second compound 1 µM, first compound 0.00316 µM",43.2%
same,"viability, T/C","second compound 1 µM, first compound 0.00999 µM",48.5%
same,"viability, T/C",[13],47.7%
same,"viability, T/C","second compound 1 µM, first compound 0.0999 µM",46.2%
same,"viability, T/C",[14],20.2%
same,"viability, T/C","second compound 3.16 µM, first compound 0.000999 µM",39.1%
same,"viability, T/C","second compound 3.16 µM, first compound 0.00316 µM",40.3%
same,"viability, T/C","second compound 3.16 µM, first compound 0.00999 µM",39.1%
same,"viability, T/C",[15],42.6%
same,"viability, T/C","second compound 3.16 µM, first compound 0.0999 µM",37.9%
same,"viability, T/C",[16],17.8%
same,"viability, T/C","second compound 10 µM, first compound 0.000999 µM",0.24%
same,"viability, T/C","second compound 10 µM, first compound 0.00316 µM",1.67%
same,"viability, T/C","second compound 10 µM, first compound 0.00999 µM",9.84%
same,"viability, T/C",[17],10.1%
same,"viability, T/C","second compound 10 µM, first compound 0.0999 µM",2.55%
same,"viability, T/C",[18],2%
C#Cc1c(F)ccc2cc(O)cc(-c3ncc4c(N5CC6CCC(C5)N6)nc(OCC56CCCN5CC(F)C6)nc4c3F)c12 (stereo not drawn) + Cc1[nH]c2ccc(F)cc2c1-c1nc2c3cccnc3c3ncccc3c2[nH]1,IC50,[1],4720 nM
same,IC50,[2],5520 nM
same,IC50,[3],3770 nM
same,IC50,[4],5380 nM
same,IC50,[5],5610 nM
same,IC50,[6],3430 nM
same,"viability, T/C",[7],103%
same,"viability, T/C","second compound 0.0316 µM, first compound 0.1 µM",96.5%
same,"viability, T/C",[8],93%
same,"viability, T/C","second compound 0.0316 µM, first compound 1 µM",72%
same,"viability, T/C","second compound 0.0316 µM, first compound 3.16 µM",57.6%
same,"viability, T/C","second compound 0.0316 µM, first compound 10 µM",38.4%
same,"viability, T/C",[9],106%
same,"viability, T/C","second compound 0.1 µM, first compound 0.1 µM",98.9%
same,"viability, T/C",[10],94.7%
same,"viability, T/C","second compound 0.1 µM, first compound 1 µM",87.2%
same,"viability, T/C","second compound 0.1 µM, first compound 3.16 µM",54.8%
same,"viability, T/C","second compound 0.1 µM, first compound 10 µM",44.2%
same,"viability, T/C",[11],110%
same,"viability, T/C","second compound 0.316 µM, first compound 0.1 µM",96.5%
same,"viability, T/C",[12],83.8%
same,"viability, T/C","second compound 0.316 µM, first compound 1 µM",74.6%
same,"viability, T/C","second compound 0.316 µM, first compound 3.16 µM",48.5%
same,"viability, T/C","second compound 0.316 µM, first compound 10 µM",37%
same,"viability, T/C",[13],95%
same,"viability, T/C","second compound 1 µM, first compound 0.1 µM",90%
same,"viability, T/C",[14],87.3%
same,"viability, T/C","second compound 1 µM, first compound 1 µM",76.5%
same,"viability, T/C","second compound 1 µM, first compound 3.16 µM",55.9%
same,"viability, T/C","second compound 1 µM, first compound 10 µM",42.6%
same,"viability, T/C",[15],96.9%
same,"viability, T/C","second compound 3.16 µM, first compound 0.1 µM",85.2%
same,"viability, T/C",[16],83.7%
same,"viability, T/C","second compound 3.16 µM, first compound 1 µM",76.2%
same,"viability, T/C","second compound 3.16 µM, first compound 3.16 µM",52.9%
same,"viability, T/C","second compound 3.16 µM, first compound 10 µM",45%
same,"viability, T/C",[17],102%
same,"viability, T/C","second compound 10 µM, first compound 0.1 µM",82.3%
same,"viability, T/C",[18],88.2%
same,"viability, T/C","second compound 10 µM, first compound 1 µM",60.2%
same,"viability, T/C","second compound 10 µM, first compound 3.16 µM",52.2%
same,"viability, T/C","second compound 10 µM, first compound 10 µM",35.6%
COc1ccc([C@@H](O)c2cc(-c3ncnc4cc(N5CCOCC5)ccc34)c(F)cc2Cl)nn1,"viability, T/C",compound 0.0316 µM,91.9% and 96.4% and 101%
same,"viability, T/C",compound 0.1 µM,89.4% and 85.8% and 88.5%
same,"viability, T/C",compound 0.316 µM,82.2% and 83.3% and 78.4%
same,"viability, T/C",compound 1 µM,55.6% and 57.7% and 45%
same,"viability, T/C",compound 3.16 µM,35% and 38.2% and 27.2%
same,"viability, T/C",compound 10 µM,22.3% and 28.1% and 20.7%
same,IC50,curve of compound,1420 nM and 1620 nM and 867 nM
CC1COCCN1c1cc(C2(O)CC3CCC(C2)O3)c2cnn(-c3ccn[nH]3)c2n1 (stereo not drawn),"viability, T/C",compound 0.0316 µM,71.4% and 88.3% and 80.1%
same,"viability, T/C",compound 0.1 µM,28.2% and 38.6% and 42.2%
same,"viability, T/C",compound 0.316 µM,23.5% and 28.2% and 31.8%
same,"viability, T/C",compound 1 µM,21.8% and 24.9% and 25.9%
same,"viability, T/C",compound 3.16 µM,19.8% and 24.2% and 26.4%
same,"viability, T/C",compound 10 µM,14.5% and 15.5% and 18.8%
same,IC50,curve of compound,56.8 nM and 79 nM and 82.7 nM
